# Measurements published in paper PMC6691347, “Design and Development of a Novel Peptide for Treating Intestinal Inflammation” (Frontiers in Immunology, 2019).
# How the values were obtained:
# [1] = Neutralization of LPS, Chromogenic End-point Tachypleus Amebocyte Lysate (CE TAL) assay; format: biochemical, E. coli
# Procedure: The neutralization of LPS by the peptides was assessed using a quantitative Chromogenic End-point Tachypleus Amebocyte Lysate (CE TAL) assay via the QCL-1000 kit (Xiamen, China). A constant concentration of LPS (1.0 EU/mL final concentration; E. coli, O111:B4, Sigma-Aldrich, USA) was incubated with various concentrations of the peptides or polymyxin B (PMB) (0–64 μg/mL final concentration; Sigma-Aldrich, USA) at 37°C for 15 min in the wells of […] sterile microliters plates. The 100 μL aliquots concentrate of limulus amebocyte lysate reagent was added and incubated at 37°C for 6 min. On the addition of chromogenic substrate, yellow color appeared. The reactions were stopped by adding 25% HCl, and then the absorbances measured at 540 nm ([45]).
# [2] = tested on: LPS-induced intestinal inflammation; assay: LPS-induced intestinal inflammation murine model; format: in vivo, C57/BL6 male mice
# Procedure: Seventy-two C57/BL6 male mice (6–8 weeks of age) were purchased from Charles River (Beijing, China). Mice were maintained in a specific pathogen free (SPF) environment at 22 ± 1°C with relative 55 ± 10% humidity, and the assays were performed in conformity with the laws and regulations for live animal treatment at China Agricultural University.
# The mice were randomly distributed into six groups (n = 12 each): control, LPS (E. coli, O111:B4, Sigma-Aldrich, USA) treatment, LL-37 pretreatment followed by LPS treatment (LL-37 + LPS), Tα1 pretreatment followed by LPS treatment (Tα1 + LPS), LTA pretreatment followed by LPS treatment (LTA + LPS). Different peptides (10 mg/kg mouse weight) were injected intraperitoneally once daily for 7 days, whereas an equal volume of sterile saline was injected intraperitoneally to the control and LPS-treated groups. On day 7, mice in LPS, LL-37 + LPS, Tα1 + LPS, and LTA + LPS groups were intraperitoneally injected with LPS (10 mg/kg mouse weight) 1h after saline or the peptides treatment, and the control group was intraperitoneally injected with an equal volume of saline. The mice were then euthanized by cervical dislocation 6 h after intraperitoneal injection of LPS or saline, and samples of the intestines were collected for analysis. The body weights of the mice were recorded before and after the experiment.
# Intestinal tissues samples from the jejunum were fixed in 4% paraformaldehyde immediately after the mice were euthanized. After embedding, the tissues were sectioned (5 μm) using an RM2235 microtome (Leica) and stained with hematoxylin-eosin (H&E). Images were acquired using a DM3000 microscope. LPS-induced intestinal injury was evaluated using Chiu's score ([43]) according to changes of the villus and glands of the jejunal mucosa. Villus height and crypt depth were measured using CaseViewer software.
# For immunohistochemical analysis of CD177^+, nonspecific binding sites were blocked with PBS containing 1% w/v BSA for 1 h. Anti-CD177^+ antibodies (Santa, USA) were added at a dilution of 1:100 and incubated overnight at 4°C. Samples were washed five times in PBS and treated with horse-radish peroxidase (HRP)-conjugated rabbit anti-goat IgG (JIR, USA) at ratio of 1:100; samples were left to incubate at 4°C for 1 h. After washing with PBS, 3,3′-diaminobenzidine (DAB; DAKO, USA) was added, and the slides were counterstained with Harris hematoxylin. Finally, the samples were dehydrated in an alcohol gradient (70–100%), and cleared in xylene. All slides were mounted in neutral balsam.
# The apoptotic cells in the jejunal sections were detected via a commercial the terminal deoxynucleotidyl transferase mediated dUTP nick end labeling (TUNEL) staining kit according to the manufacturer's instruction (Roche, Indianapolis, IN, USA). The sections were co-stained with the DAPI (Servicebio, Wuhan, China). The number of apoptotic cells was counted in four to six randomly selected fields at 200 × magnification.
# (§1) RAW264.7 cells were treated with or without 10 μg/mL peptides for 1h before the addition of 100 ng/mL LPS and further incubation for 12 h at 37°C. Levels of tumor necrosis factor-alpha (TNF-α), interleukin-6 (IL-6), and IL-1β were detected in culture supernatant and jejunum, respectively. In addition, the level of interferon-gamma (IFN-γ) was detected in the jejunum. ELISA was performed using a commercial ELISA kit (eBioscience, San Diego, USA).
# The activities of myeloperoxidase (MPO) in the jejunum were detected using ELISA kits (Boster Wuhan, China) according to the manufacturer's instructions.
# Whole protein of intestinal tissues was obtained with the whole protein extraction kit (KeyGEN Biotech, Nanjing, China) according to the manufacturer's instructions. The protein concentration was measured via the BCA kit (KeyGEN Biotech, Nanjing, China). […]
# RAW264.7 cells = assay: Cell viability assay (CCK-8); format: cell-based, Mouse; settings: for cytotoxic activity on RAW264.7 macrophage cells: CCK-8, 24 h, among selected hybrid peptides and their parental peptides; for cell viability: RAW264.7 cells, lower doses of peptide, 24 h, CCK-8, OD450, 8 biological replicates
# Procedure: The viability of peptide-treated RAW264.7 cells was determined using the Cell Counting Kit-8 (CCK-8) Assay Kit (Dojindo) ([42]). RAW264.7 cells were pre-seeded on a 96-well plate at a density of 3 × 10^4 cells/mL in 100 μL DMEM medium overnight. The cells were either treated with various concentrations of peptides or without peptides at 37°C and 5% CO2 for 24 h. Each well was incubated with 10 μL CCK-8 solution for 4 h in the darkness. Then, the absorbance at 450 nm was measured using a microplate reader. Cell viability was calculated as:
# Cell viability (%)=(OD450 (sample)/OD450(control))×100%
# where OD450(sample) is the absorbance at 450 nm of the cells with peptides treated and OD450(control) is the absorbance at 450 nm of the cells without peptides treated.
# [3] = tested on: LPS-stimulated RAW264.7 cells; assay: ELISA of cytokine release from LPS-stimulated RAW264.7 cells; format: cell-based, Mouse; settings: RAW264.7, 10 μg/mL peptide 1 h before 100 ng/mL LPS, 12 h, ELISA of supernatant; compared to the other tested peptides; n = 3
# Procedure: as §1
# [4] = ELISA, peptide 10 mg/kg i.p. pretreatment, LPS 10 mg/kg, LTA compared to Tα1- or LL-37-pretreated groups, n = 12
# [5] = jejunal tissues, western blot, LTA pretreatment vs LPS, n = 3
# [6] = jejunum, western blot, LTA 10 mg/kg i.p. pretreatment, LPS 10 mg/kg
sequence,measurement,setting,value
"IGKEFKRIVQRIKDFLRNLVPRTEKEKKEVVE [LTA, hybrid peptide LL-37-Tα1]",concentration that completely neutralizes LPS,"[1]; LPS 1.0 EU/mL, 37°C 15 min, CE TAL, n = 3",≥ 8 µg/mL
same,inhibition of the activation of tachypleus amebocyte lysate (LPS neutralization),"[1]; LPS 1.0 EU/mL, peptide 0–64 μg/mL, 37°C 15 min, n = 3",dose-dependent manner
same,concentration that almost completely neutralizes LPS,"[1]; in vitro, CE TAL, statement of the discussion",8 µg/mL
same,plasma LPS level,"[2]; CE TAL test of mouse plasma, LTA 10 mg/kg i.p. pretreatment, LPS 10 mg/kg",significantly reduced the plasma LPS level
same,MPO activity in the jejunum,"[2]; ELISA kit, peptide 10 mg/kg i.p. pretreatment, LPS 10 mg/kg, compared to the LPS-treated group, n = 12",markedly decreased MPO activity
same,IFN-γ concentration in the jejunum,[2]; [4],significantly lower
same,IL-1β concentration in the jejunum,[2]; [4],significantly lower
same,IL-6 concentration in the jejunum,[2]; [4],significantly lower
same,TNF-α concentration in the jejunum,[2]; [4],significantly lower
same,infiltration of CD177+ neutrophils into jejunal tissue,"[2]; immunohistochemistry, peptide 10 mg/kg i.p. pretreatment, LPS 10 mg/kg",reduced this effect to the basal level
same,apoptosis index (TUNEL staining),"[2]; jejunal sections, peptide 10 mg/kg i.p. pretreatment, LPS 10 mg/kg, compared to the LPS-treated group",significantly reduced the apoptosis index
same,phosphorylation of IKK-β,[2]; [5],decreased
same,phosphorylation of IκB-α,[2]; [5],decreased
same,phosphorylation of NF-κB,[2]; [5],decreased
same,Chiu's score,"[2]; jejunum H&E, mice, peptide 10 mg/kg i.p. once daily for 7 days, LPS 10 mg/kg i.p., 6 h after LPS, LPS group 3.33 ± 0.58, mean ± SD",0.67 ± 0.58
same,expression of Occludin,[2]; [6],significantly higher than that in the LPS-group
same,expression of ZO-1,[2]; [6],significantly higher than that in the LPS-group
same,villus height to crypt depth (V/C) ratio,"[2]; jejunum, mice, peptide 10 mg/kg i.p. once daily for 7 days, LPS 10 mg/kg i.p., 6 h after LPS, LPS group 2.35 ± 0.389, mean ± SD",4.19 ± 0.364
same,body weight (weight loss after LPS),"[2]; mice, peptide 10 mg/kg i.p. once daily, then LPS 10 mg/kg i.p. 1 h after last dose, n = 12",recovered their weight loss rapidly
same,cytotoxic activity on RAW264.7 macrophage cells,RAW264.7 cells,lowest cytotoxic activity
same,cell viability,RAW264.7 cells,greater than 100%
same,release of IL-1β,[3],remarkable decrease
same,release of IL-6,[3],remarkable decrease
same,release of TNF-α,[3],remarkable decrease
"IGKEFKRIVQRIKDFLRNLVPRTERKDVT [LTP, hybrid peptide LL-37-TP5]",cytotoxic activity on RAW264.7 macrophage cells,RAW264.7 cells,lowest cytotoxic activity
same,cell viability,RAW264.7 cells,greater than 100%
